According to PMC12163657 (ACS Omega, 2025):
pIC50: −log10 of the molar value.

Tests used:
ERα LBD = target: T1, ERα LBD (Homo sapiens, UniProt P03372); experiment: LanthaScreen TR-FRET ERα competitive binding assay
T1 sequence (P03372 311-547 limits assumed): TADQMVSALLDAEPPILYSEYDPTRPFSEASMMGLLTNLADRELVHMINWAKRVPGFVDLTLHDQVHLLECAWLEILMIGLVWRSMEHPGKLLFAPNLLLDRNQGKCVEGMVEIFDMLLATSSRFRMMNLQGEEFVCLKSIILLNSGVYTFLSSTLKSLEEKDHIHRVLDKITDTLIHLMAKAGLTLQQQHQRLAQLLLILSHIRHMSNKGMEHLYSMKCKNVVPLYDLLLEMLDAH

ERα [1] = target: T2, ERα (Homo sapiens, UniProt P03372); experiment: Alkaline phosphatase; assay type: cell-based; conditions: Ishikawa, read-out: AP % E max, Ishikawa (ECC-1) cells, agonist mode, 72 h
T2 sequence (P03372 1-595): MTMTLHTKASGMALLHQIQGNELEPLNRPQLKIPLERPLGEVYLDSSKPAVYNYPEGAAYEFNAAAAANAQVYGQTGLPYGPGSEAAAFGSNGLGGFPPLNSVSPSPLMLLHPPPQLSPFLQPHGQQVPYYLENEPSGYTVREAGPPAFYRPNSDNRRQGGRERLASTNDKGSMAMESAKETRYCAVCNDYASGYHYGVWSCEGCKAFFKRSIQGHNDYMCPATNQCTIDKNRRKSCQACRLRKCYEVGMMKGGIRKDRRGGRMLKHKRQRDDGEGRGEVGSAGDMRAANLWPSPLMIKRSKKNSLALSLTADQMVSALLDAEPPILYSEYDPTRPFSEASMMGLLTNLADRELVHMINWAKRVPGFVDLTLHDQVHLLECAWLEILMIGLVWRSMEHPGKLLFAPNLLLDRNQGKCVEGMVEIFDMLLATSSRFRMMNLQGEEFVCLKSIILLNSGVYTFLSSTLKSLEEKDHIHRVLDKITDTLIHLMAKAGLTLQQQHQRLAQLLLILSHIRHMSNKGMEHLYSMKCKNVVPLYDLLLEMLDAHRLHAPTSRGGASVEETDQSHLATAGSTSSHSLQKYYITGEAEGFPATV

ERα [2] = target: T2, ERα; experiment: Alkaline phosphatase; assay type: cell-based
[3] = Mouse hepatocyte stability; assay type: in vitro ADME; conditions: hepatocytes
[4] = Human hepatocyte stability; assay type: in vitro ADME; conditions: hepatocytes
[5] = In vivo mouse oral single dose PK; conditions: for total AUCinf / free AUCinf: oral single dose; for free AUCinf: estimated based on the percent free fraction; for Cmax / half-life: plasma, po
[6] = Plasma protein binding, rapid equilibrium dialysis, mouse plasma; assay type: in vitro ADME; conditions: undiluted plasma
[7] = test system: E2-induced uterine wet weight; experiment: Ovariectomized mouse uterine wet weight study; assay type: in vivo; conditions: dose giving 50% inhibition of E2-induced uterine wet weight; oral, once daily, 3 days

Structure (SMILES) | pIC50 (ERα LBD) | Emax (ERα [1]) | pIC50 (ERα [2]) | half-life [3] | hepatocyte CLint [3] | half-life [4] | hepatocyte CLint [4] | also measured
C[C@@H]1Cc2c([nH]c3ccccc23)[C@@H](c2ccc(CCCN3CC(CF)C3)cc2)N1CC(C)(C)F [compound 22, C[C@@H]1Cc2c([nH]c3ccccc23)[C@H](N1CC(C)(C)F)c1ccc(cc1)CCCN1CC(CF)C1] | 8.80 | > 50% |  |  |  |  |  | 
C[C@@H]1Cc2c([nH]c3ccccc23)[C@@H](c2ccc(OCCN3CC(CF)C3)cc2)N1CC(C)(C)F [compound 23, C[C@@H]1Cc2c([nH]c3ccccc23)[C@H](N1CC(C)(C)F)c1ccc(cc1)OCCN1CC(CF)C1] | 8.80 |  | 8.90 | 5.37 h | 4.3 µL/min/1e6 cells | 3.82 h | 6.1 µL/min/1e6 cells | total AUCinf [5]: 2289 ng·h/mL; free AUCinf [5]: 3.9 ng·h/mL; Cmax [5]: 186 ng/mL; half-life [5]: 7 h; fraction unbound at 4 h, 1 µM [6]: 0.0017; uterine wet weight ID50 [7]: <0.1 mg/kg
CCCN1CC(Cc2ccc([C@@H]3c4[nH]c5ccccc5c4C[C@@H](C)N3CC(C)(C)F)cc2)C1 [compound 24, CCCN1CC(C1)Cc1ccc(cc1)[C@H]1N(CC(C)(C)F)[C@H](C)Cc2c1[nH]c1ccccc21] | 8.40 | 8.5% | 8.50 |  |  |  |  | 
C[C@@H]1Cc2c([nH]c3ccccc23)[C@@H](c2ccc(CCCN3CC(CF)C3)c(F)c2)N1CC(C)(C)F [compound 25, C[C@@H]1Cc2c([nH]c3ccccc23)[C@H](N1CC(C)(C)F)c1ccc(c(c1)F)CCCN1CC(CF)C1] | 8.40 | 22% | 8.10 |  |  |  |  | 
C[C@@H]1Cc2c([nH]c3ccccc23)[C@@H](c2ccc(OCCN3CC(CF)C3)c(F)c2)N1CC(C)(C)F [compound 26, C[C@@H]1Cc2c([nH]c3ccccc23)[C@H](N1CC(C)(C)F)c1ccc(c(c1)F)OCCN1CC(CF)C1] | 8.60 | 2.1% | 8.70 | 3.78 h | 6.1 µL/min/1e6 cells | 4.55 h | 5.1 µL/min/1e6 cells | 
CCCN1CC(Cc2ccc([C@@H]3c4[nH]c5ccccc5c4C[C@@H](C)N3CC(C)(C)F)cc2F)C1 [compound 27, CCCN1CC(C1)Cc1ccc(cc1F)[C@H]1N(CC(C)(C)F)[C@H](C)Cc2c1[nH]c1ccccc21] | 8.70 | 7.4% | 8.30 |  |  |  |  | 
CCCN1CC(Oc2ccc([C@@H]3c4[nH]c5ccccc5c4C[C@@H](C)N3CC(C)(C)F)cc2F)C1 [compound 28, CCCN1CC(C1)Oc1ccc(cc1F)[C@H]1N(CC(C)(C)F)[C@H](C)Cc2c1[nH]c1ccccc21] | 8.40 | 3.1% | 8.00 |  |  |  |  | 
C[C@@H]1Cc2c([nH]c3ccccc23)[C@@H](c2c(F)cc(CCCN3CC(CF)C3)cc2F)N1CC(C)(C)F [compound 29, C[C@@H]1Cc2c([nH]c3ccccc23)[C@H](N1CC(C)(C)F)c1c(cc(cc1F)CCCN1CC(CF)C1)F] | 8.60 |  |  |  |  |  |  | 
C[C@@H]1Cc2c([nH]c3ccccc23)[C@@H](c2c(F)cc(OCCN3CC(CF)C3)cc2F)N1CC(C)(C)F [compound 30, C[C@@H]1Cc2c([nH]c3ccccc23)[C@H](N1CC(C)(C)F)c1c(cc(cc1F)OCCN1CC(CF)C1)F] |  |  |  | > 6 h | < 3.9 µL/min/1e6 cells | 4.5 h | 5.1 µL/min/1e6 cells | total AUCinf [5]: 2090 ng·h/mL; free AUCinf [5]: 0.8 ng·h/mL; Cmax [5]: 112 ng/mL; half-life [5]: 11 h; fraction unbound at 4 h, 1 µM [6]: 0.0004
CCCN1CC(Cc2cc(F)c([C@@H]3c4[nH]c5ccccc5c4C[C@@H](C)N3CC(C)(C)F)c(F)c2)C1 [compound 31, CCCN1CC(C1)Cc1cc(c(c(c1)F)[C@H]1N(CC(C)(C)F)[C@H](C)Cc2c1[nH]c1ccccc21)F] | 8.30 | 5.4% | 8.80 | > 6 h | < 3.9 µL/min/1e6 cells | > 6 h | < 3.9 µL/min/1e6 cells | 
CCCN1CC(Oc2cc(F)c([C@@H]3c4[nH]c5ccccc5c4C[C@@H](C)N3CC(C)(C)F)c(F)c2)C1 [compound 32, CCCN1CC(C1)Oc1cc(c(c(c1)F)[C@H]1N(CC(C)(C)F)[C@H](C)Cc2c1[nH]c1ccccc21)F] |  |  |  | > 6 h | < 3.9 µL/min/1e6 cells | 5.4 h | 4.3 µL/min/1e6 cells | total AUCinf [5]: 2743 ng·h/mL; free AUCinf [5]: 0.3 ng·h/mL; Cmax [5]: 219 ng/mL; half-life [5]: 15 h; fraction unbound at 4 h, 1 µM [6]: 0.0001
C[C@@H]1Cc2c([nH]c3ccccc23)[C@@H](c2ccc(OC3CN(C)C3)cc2)N1CC(C)(C)F [compound 33, C[C@@H]1Cc2c([nH]c3ccccc23)[C@H](N1CC(C)(C)F)c1ccc(cc1)OC1CN(C)C1] | 9.30 | 10% | 8.10 |  |  |  |  | 
CCN1CC(Oc2ccc([C@@H]3c4[nH]c5ccccc5c4C[C@@H](C)N3CC(C)(C)F)cc2)C1 [compound 34, CCN1CC(C1)Oc1ccc(cc1)[C@H]1N(CC(C)(C)F)[C@H](C)Cc2c1[nH]c1ccccc21] | 9.30 | 4.6% |  |  |  |  |  | 
CCCCN1CC(Oc2ccc([C@@H]3c4[nH]c5ccccc5c4C[C@@H](C)N3CC(C)(C)F)cc2)C1 [compound 35, CCCCN1CC(C1)Oc1ccc(cc1)[C@H]1N(CC(C)(C)F)[C@H](C)Cc2c1[nH]c1ccccc21] | 8.80 | 27% |  |  |  |  |  | 
CCCCCN1CC(Oc2ccc([C@@H]3c4[nH]c5ccccc5c4C[C@@H](C)N3CC(C)(C)F)cc2)C1 [compound 36, CCCCCN1CC(C1)Oc1ccc(cc1)[C@H]1N(CC(C)(C)F)[C@H](C)Cc2c1[nH]c1ccccc21] | 8.60 | 93% |  |  |  |  |  | 
CCCN1CC(Oc2ccc([C@@H]3c4[nH]c5ccccc5c4C[C@@H](C)N3C[C@H](C)CO)cc2)C1 [compound 37, CCCN1CC(C1)Oc1ccc(cc1)[C@H]1N(C[C@H](C)CO)[C@H](C)Cc2c1[nH]c1ccccc21] | 9.30 | 0.7% | 8.00 |  |  |  |  | 
CCCN1CC(Oc2ccc([C@@H]3c4[nH]c5ccccc5c4C[C@@H](C)N3CC(F)(F)CO)cc2)C1 [compound 38, CCCN1CC(C1)Oc1ccc(cc1)[C@H]1N(CC(F)(F)CO)[C@H](C)Cc2c1[nH]c1ccccc21] | 9.00 | 0% | 9.80 | 3.83 h | 6 µL/min/1e6 cells | 1.27 h | 18.2 µL/min/1e6 cells | 
CCCN1CC(Oc2ccc([C@@H]3c4[nH]c5ccccc5c4C[C@@H](C)N3CCC(C)(C)O)cc2)C1 [compound 39, CCCN1CC(C1)Oc1ccc(cc1)[C@H]1N(CCC(C)(C)O)[C@H](C)Cc2c1[nH]c1ccccc21] | 8.90 | 2% | 6.40 |  |  |  |  | 
CCCN1CC(Oc2ccc([C@@H]3c4[nH]c5ccccc5c4C[C@@H](C)N3C[C@@H](C)CO)cc2)C1 [compound 40, CCCN1CC(C1)Oc1ccc(cc1)[C@H]1N(C[C@@H](C)CO)[C@H](C)Cc2c1[nH]c1ccccc21] | 8.90 | 0.4% | 8.50 | 3.05 h | 7.6 µL/min/1e6 cells | 2.62 h | 8.8 µL/min/1e6 cells | 
CCCN1CC(Oc2ccc([C@@H]3c4[nH]c5ccccc5c4C[C@@H](C)N3CC(F)(F)COC)cc2)C1 [compound 41, CCCN1CC(C1)Oc1ccc(cc1)[C@H]1N(CC(F)(F)COC)[C@H](C)Cc2c1[nH]c1ccccc21] | 9.00 | 0.9% | 8.30 | 1.27 h | 18.2 µL/min/1e6 cells | 1.65 h | 14.1 µL/min/1e6 cells | potency loss in AP (antag.) relative to 38 (ERα [2]; replacing OH with OMe): 1.5 log
CCCN1CC(Oc2ccc([C@@H]3c4[nH]c5ccccc5c4C[C@@H](C)N3CCC(C)(C)F)cc2)C1 [compound 42, CCCN1CC(C1)Oc1ccc(cc1)[C@H]1N(CCC(C)(C)F)[C@H](C)Cc2c1[nH]c1ccccc21] | 7.80 | 0% | 7.30 |  |  |  |  | 
C[C@]12CC[C@@H]3c4ccc(O)cc4C[C@@H](CCCCCCCCC[S+]([O-])CCCC(F)(F)C(F)(F)F)[C@H]3[C@@H]1CC[C@@H]2O (stereo partly shown) [fulvestrant 3, fulvestrant, reference compound] |  | 0.1% |  |  |  |  |  | 
